Measurements from patent US4918173A, “2',6'-Dideoxy derivatives of anthracycline glycosides” (Laboratories Hoechst S.A., priority 1985, dated 1990).
Values after ≈ are worked out from the molar mass of the structure shown. Like-named read-outs stand apart in the source and are kept apart here.

How the values were obtained:
[1] = versus the parent compounds; F. Arcamone et al. 1976; cited from earlier work
L 1210 leukemia cells = assay: Effect on L 1210 leukemia cells: colony formation in agarose, method of Hamburger and Salmon modified; format: cell-based; settings: Mus musculus
Experimental: The cells are incubated for 1 hour at 37° C. in the presence of various concentrations of the tested substance. The cells are then washed twice with Mc Coy 5 A and placed on agarose plates according to the method of Hamburger and Salmon. Furthermore, the test is carried out in parallel with continuous incubation with various concentrations of the substance under study by introducing the substance into the agarose layer before the cells are left to incubate. The dishes are placed in the oven at 37° C. under an atmosphere of 5% CO2 and 20% O2, and a relative humidity of 95% for 5 to 7 days. After this time the colonies with a diameter greater than 60 mcm are counted with the aid of a reversed microscope. […] Two experiments are carried out, one with 1 hour's exposure, the other with continuous exposure.

[2] = L1210, L 1210 leukemia cells, 1 h exposure at 37° C., read-out: IC 50, 1 h exposure
[3] = L1210, L 1210 leukemia cells, continuous exposure (substance in agarose layer), 5 to 7 days, read-out: IC 50, Continuous exposure

Row | Compound | IC50 (L 1210 leukemia cells; [2]) [µg/mL] | IC50 (L 1210 leukemia cells; [3]) [µg/mL] | also measured
1 | COc1cccc2c1C(=O)c1c(O)c3c(c(O)c1C2=O)C[C@@](O)(C(=O)CO)C[C@@H]3O[C@H]1C[C@H](N)[C@H](O)[C@H](C)O1 [adriamycin] | – | – | activity relative to the parent compounds [1]: more active; toxicity relative to the parent compounds [1]: less toxic
2 | CC(=O)[C@]1(O)Cc2c(O)c3c(c(O)c2[C@@H](O[C@H]2C[C@H](N)[C@H](O)[C@H](C)O2)C1)C(=O)c1ccccc1C3=O [4-demethoxydaunorubicin] | – | – | activity relative to the parent compounds [1]: more active; toxicity relative to the parent compounds [1]: less toxic
3 | CC(=O)O[C@H]1[C@H](C)O[C@@H](O[C@H]2C[C@](O)(CO)Cc3c(O)c4c(c(O)c32)C(=O)c2ccccc2C4=O)C[C@@H]1OC(C)=O [XXIV, 1-O-(3',4'-Di-O-acetyl-2',6'-dideoxy-α-L-arabinohexopyranosyl)-1,2,3,4,6,11-hexahydro-1S,3S,5,12-tetrahydroxy-3-hydroxymethylnaphthacene-6,11-dione] | 0.021 (≈ 0.0368 µM) | 3.6 (≈ 6.31 µM) | –
4 | C[C@@H]1O[C@@H](O[C@H]2C[C@]3(COC(C)(C)O3)Cc3c(O)c4c(c(O)c32)C(=O)c2ccccc2C4=O)C[C@H](O)[C@H]1O | > 1 | > 1 | –
5 | C[C@@H]1O[C@@H](O[C@H]2C[C@](O)(CO)Cc3c(O)c4c(c(O)c32)C(=O)c2ccccc2C4=O)C[C@H](O)[C@H]1O [XXV, 1-O-(2',6'-dideoxy-α-L-arabinohexopyranosyl)-1,2,3,4,6,11-hexahydro-1S,3S,5,12-tetrahydroxy-3-hydroxymethylnaphthacene-6,11-dione] | 0.025 (≈ 0.0514 µM) | 0.063 (≈ 0.13 µM) | –
6 | COc1cccc2c1C(=O)c1c(O)c3c(c(O)c1C2=O)C[C@@](O)(C(=O)CO)C[C@@H]3O[C@H]1C[C@H](N)[C@H](O)[C@H](C)O1 [DOXORUBICIN, reference compound] | – | – | IC50 (L 1210 leukemia cells; L1210, 1 h, read-out: IC 50, 1 h exposure): 0.02 µg/mL (≈ 0.0368 µM); IC50 (L 1210 leukemia cells; L1210, read-out: IC 50, Continuous exposure): 0.04 µg/mL (≈ 0.0736 µM)
7 | CC(=O)O[C@H]1[C@H](C)O[C@@H](O[C@H]2C[C@]3(COC(C)(C)O3)Cc3c(O)c4c(c(O)c32)C(=O)c2ccccc2C4=O)C[C@@H]1OC(C)=O [XXIII, 1-O-(3',4'-Di-O-acetyl-2',6'-dideoxy-α-L-arabinohexopyranosyl)-1,2,3,4,6,11-hexahydro-1S,3S,5,12-tetrahydroxy-3-hydroxymethyl-3,13-O-isopropylidenenaphthacene-6,11-dione] | 2.8 (≈ 4.59 µM) | > 10 | –
